Assay results: patent US20250255847A1, “[…]s: Novel Drugs for Triple Negative Breast Cancer” (SIMMARON RSEARCH INC, priority 2024, published 2025)

Tests used:
[1] = system: human mammary epithelial cells (HMECs); assay: LDH assay in healthy human mammary epithelial cells; type: cell-based; settings: 1, 2, 5, 10 and higher nM doses, 48 hrs
Description: FIG. 11 illustrates an embodiment of the present invention and illustrates SIM-1 and SIM-2 induced apoptosis in MDA-MB-468 TNBC cells, but not HMEC control cells. MDA-MB-468 cells were treated with increasing doses of (A) SIM-1 and (B) SIM-2 for 48 hrs followed by lactate dehydrogenase (LDH) release assay in the supernatants. The result was offset with cell-bound LDH and presented as a percent of DMSO control as discussed under method section. Half-maximal cytotoxicity or CT50 analyses were performed plotting maximum response as an index of increasing doses of (C) SIM-1 and (D) SIM-2. AnnexinV (green) and propidium iodide (red) dual-labeling were performed to evaluate apoptotic response in MDA-MB-468 cells once treated with increasing doses of (E) SIM-1 and (F) SIM-2 for 24 hrs. Nuclei were stained with DAPI. TUNEL assay was performed in MDA-MB-468 cells after treatment with 25 nM of (G) SIM-1. Brown-colored TUNEL bodies were visualized at cresyl violet-stained blue nuclei. (H) The number of TUNEL bodies were counted as a percent of 100 cresyl violet-stained blue cells. Ten independent images were counted for the quantification study. Similarly, SIM-2 was assessed for (I) TUNEL and (J) subsequent quantification analyses. […]
LDH Assay. […] Each dose was measured in triplicates. […] The plate was read at 490 nm (background at 680 nm). […]

[2] = system: STAT3-dependent tumor-promoting genes; assay: cDNA-based gene array of 66 STAT3-dependent genes in MDA-MB-468 cells; type: cell-based, human; settings: 10 nM doses, EGF-stimulated MDA-MB-468
Description: FIG. 10 illustrates an embodiment of the present invention and illustrates SIM-1 and SIM-2 inhibit expressions of IL6, RANTES, and other STAT3-dependent tumor promoting genes and proteins. (A) A gene array of STAT3 dependent 66 genes (listed in Table 1) was performed in mRNA samples of MDA-MB-468 cells. Realtime PCR plate coated with 66 primer sets of STAT3-dependent genes was run for four conditions including control, EGF (25 ng/mL), EGF+SIM-1 (10 nM) and EGF+SIM-2 (10 nM). The resultant Ct value was normalized with four different housekeeping genes, and then summarized with a heatmap analyses drawn in Morpheus server of Broad Institute. […] (C) The cloning of STAT3 response element of IL6 promoter upstream of GFP reporter was performed by GeneCopoea genome editing service (Rockville, MD). The bit score map and sequence of consensus STAT3 response element or SEQ ID NO: 2 was shown below. […] After that live cells were recorded at Ex:Em=485/535 nm wavelength for GFP activity. […] (G) The GFP reporter activity was measured where the scrambled gene was cloned upstream of eGFP reporter. […]
Gene array. […] After that, mRNA was isolated using the Gene Jet RNA purification kit (Cat. #K0732), quantified by Bio-Rad Smart Spec™ plus spectrophotometer, converted to cDNA by GoScript™ CDNA synthesis kit, as per the manufacturer's instructions. […]

SMILES	cell death in HMEC cells (LDH) compared to DMSO control [1]	expressions of tumor-promoting factors, inflammatory cytokine, metastatic and anti-apoptotic genes (AKT, IL6, RANTES, MMPs, Cyclin D1, Bcl-2 etc.) [2]
CCOC(=O)c1c(NC(C)=O)sc2c(Cl)c(/C=N/O)ccc12 [SIM-2, ethyl 2-acetamido-7-chloro-6-(hydroxyiminomethyl)-1-benzothiophene-3-carboxylate]	unable to augment any significant cell death	strongly attenuated
O=C(O)CCC(=O)NCc1csc2ccc(Cl)cc12 [SIM-1, 4-[(5-chloro-1-benzothiophen-3-yl)methylamino]-4-oxobutanoic acid]	unable to augment any significant cell death	strongly attenuated
